According to US20260365671A1, “HETEROCYCLIC COMPOUND” (Takeda Pharmaceutical Company Limited, priority 2022, published 2026):
One block for each compound: values may come before it.

Columns and labels:
NF-κB pathway = experiment: TNF-α assay (THP-1 cells differentiated to macrophages with IFN-γ, NF-κB pathway activated with LPS; ELISA); assay type: cell-based, Human; conditions: compound 30 min, 50 ng/mL LPS 3 hours
Summary of the method: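 TNF-α release measured by ELISA after 3 h stimulation with 50 ng/mL LPS, following 30 min compound pretreatment (37 °C, no FBS). Cells were THP-1 macrophages primed with IFN-γ 25 ng/mL for 24 h. IC50 derived by logistic curve fit.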

NLRP3 inflammasome = target: T1, NLRP3 inflammasome (Homo sapiens, UniProt Q96P20); experiment: IL-1β TR-FRET assay (THP-1 cells differentiated to macrophages with IFN-γ, LPS primed, ATP activated; HTRF); assay type: cell-based; conditions: THP-1 macrophages, 50 ng/mL LPS priming, compound 30 min, 20 mM ATP 2 hours
T1 construct: IL-1beta HTRF
T1 sequence (Q96P20 whole entry): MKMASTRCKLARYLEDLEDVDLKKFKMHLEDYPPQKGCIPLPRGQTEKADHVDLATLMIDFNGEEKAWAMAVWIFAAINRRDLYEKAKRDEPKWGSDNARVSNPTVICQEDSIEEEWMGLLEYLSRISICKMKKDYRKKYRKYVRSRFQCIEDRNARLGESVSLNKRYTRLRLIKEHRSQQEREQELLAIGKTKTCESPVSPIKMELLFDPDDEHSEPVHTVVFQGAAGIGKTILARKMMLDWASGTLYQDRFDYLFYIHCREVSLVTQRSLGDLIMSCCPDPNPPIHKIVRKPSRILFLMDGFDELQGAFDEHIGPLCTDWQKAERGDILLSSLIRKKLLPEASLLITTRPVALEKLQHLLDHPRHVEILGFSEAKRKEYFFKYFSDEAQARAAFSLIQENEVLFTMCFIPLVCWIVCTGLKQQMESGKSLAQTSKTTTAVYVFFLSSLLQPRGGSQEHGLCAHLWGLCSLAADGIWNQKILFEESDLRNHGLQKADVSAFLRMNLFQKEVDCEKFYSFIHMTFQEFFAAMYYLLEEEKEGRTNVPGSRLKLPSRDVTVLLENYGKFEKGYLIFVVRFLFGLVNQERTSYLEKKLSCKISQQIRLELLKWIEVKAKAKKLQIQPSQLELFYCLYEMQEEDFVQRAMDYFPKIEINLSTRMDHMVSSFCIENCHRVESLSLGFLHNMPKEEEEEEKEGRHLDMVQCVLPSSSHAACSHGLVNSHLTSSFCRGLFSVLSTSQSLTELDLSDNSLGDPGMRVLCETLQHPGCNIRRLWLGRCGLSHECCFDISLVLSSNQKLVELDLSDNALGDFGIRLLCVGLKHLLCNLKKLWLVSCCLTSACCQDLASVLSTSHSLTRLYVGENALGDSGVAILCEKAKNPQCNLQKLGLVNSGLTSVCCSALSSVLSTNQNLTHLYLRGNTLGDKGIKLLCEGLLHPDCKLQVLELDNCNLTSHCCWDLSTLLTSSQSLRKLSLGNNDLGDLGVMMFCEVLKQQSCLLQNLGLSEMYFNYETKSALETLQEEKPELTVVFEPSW
Summary of the method: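 IL-1β release was read by HTRF after 16–24 h antibody incubation at room temperature, using supernatants from THP-1-derived macrophages (IFN-γ 25 ng/mL, LPS 50 ng/mL priming) given compound 30 min and then 20 mM ATP for 2 h. % inhibition versus concentration was fitted logistically for IC50.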

[1] = Homo sapiens, THP-1, THP-1 macrophages

Compound: CC(=O)NCCNc1nc2nn(-c3c(C)cc(C)cc3O)cc2s1 [Example 38, N-(2-{[2-(2-hydroxy-4,6-dimethylphenyl)-2H-pyrazolo[3,4-d][1,3]thiazol-5-yl]amino}ethyl)acetamide]
- IC50 (NF-κB pathway; [1]): > 30000 nM
- IC50 (NLRP3 inflammasome): 440 nM

Compound: CC(=O)NCCCCNc1nc2nn(-c3c(C)cc(C)cc3O)cc2s1 [Example 39]
- IC50 (NF-κB pathway; [1]): > 30000 nM
- IC50 (NLRP3 inflammasome): 390 nM

Compound: CO[C@H]1CN(C)C[C@@H]1Nc1nc2nn(-c3c(C)cc(C)cc3O)cc2s1 [Example 40, 2-(5-{[(3S,4S)-4-methoxy-1-methylpyrrolidin-3-yl]amino}-2H-pyrazolo[3,4-d][1,3]thiazol-2-yl)-3,5-dimethylphenol]
- IC50 (NF-κB pathway; [1]): > 30000 nM
- IC50 (NLRP3 inflammasome): 1800 nM

Compound: Cc1cc(C)c(-n2cc3sc(N[C@@H]4C[C@@H](C(F)F)CN(C)C4)nc3n2)c(O)c1 [Example 41, 2-(5-{[(3R,5R)-5-(difluoromethyl)-1-methylpiperidin-3-yl]amino}-2H-pyrazolo[3,4-d][1,3]thiazol-2-yl)-3,5-dimethylphenol]
- IC50 (NF-κB pathway; [1]): > 10000 nM
- IC50 (NLRP3 inflammasome): 1500 nM

Compound: Cc1cc(C)c(-n2cc3sc(N[C@@H]4CC[C@@H](O)C4)nc3n2)c(O)c1 [Example 44, 2-(5-{[(1R,3R)-3-hydroxycyclopentyl]amino}-2H-pyrazolo[3,4-d][1,3]thiazol-2-yl)-3,5-dimethyphenol or 2-(5-{[(1S,3S)-3-hydroxycyclopentyl]amino}-2H-pyrazolo[3,4-d][1,3]thiazol-2-yl)-3,5-dimethylphenol (tR1)]
- IC50 (NF-κB pathway; [1]): > 10000 nM
- IC50 (NLRP3 inflammasome): 240 nM

Compound: Cc1cc(C)c(-n2cc3sc(N[C@@H]4CC[C@@H](O)C4)nc3n2)c(O)c1 [Example 45, 2-(5-{[(1R,3R)-3-hydroxycyclopentyl]amino}-2H-pyrazolo[3,4-d][1,3]thiazol-2-yl)-3,5-dimethylphenol or 2-(5-{[(1S,3S)-3-hydroxycyclopentyl]amino}-2H-pyrazolo[3,4-d][1,3]thiazol-2-yl)-3,5-dimethylphenol (tR2)]
- IC50 (NF-κB pathway; THP-1 macrophages): > 10000 nM
- IC50 (NLRP3 inflammasome): 330 nM

Compound: Cc1cc(C)c(-n2cc3sc(N[C@@H]4CC[C@H](O)C4)nc3n2)c(O)c1 [Example 46, 2-(5-{[(1R,3S)-3-hydroxycyclopentyl]amino}-2H-pyrazolo[3,4-d][1,3]thiazol-2-yl)-3,5-dimethylphenol or 2-(5-{[(1S,3R)-3-hydroxycyclopentyl]amino}-2H-pyrazolo[3,4-d][1,3]thiazol-2-yl)-3,5-dimethylphenyl (tR1)]
- IC50 (NF-κB pathway; [1]): > 10000 nM
- IC50 (NLRP3 inflammasome): 330 nM

Compound: Cc1cc(C)c(-n2cc3sc(N[C@@H]4CC[C@H](O)C4)nc3n2)c(O)c1 [Example 47, 2-(5-{[(1R,3S)-3-hydroxycyclopentyl]amino}-2H-pyrazolo[3,4-d][1,3]thiazol-2-yl)-3,5-dimethylphenol or 2-(5-{[(1S,3R)-3-hydroxycyclopentyl]amino}-2H-pyrazolo[3,4-d][1,3]thiazol-2-yl)-3,5-dimethylphenol (tR2)]
- IC50 (NF-κB pathway; THP-1 macrophages): > 10000 nM
- IC50 (NLRP3 inflammasome): 1200 nM

Compound: Cc1cc(C)c(-n2cc3sc(N(C)C)nc3n2)c(O)c1 [Example 49, 2-[5-(dimethylamino)-2H-pyrazolo[3,4-d][1,3]thiazol-2-yl]-3,5-dimethylphenol]
- IC50 (NF-κB pathway; [1]): > 30000 nM
- IC50 (NLRP3 inflammasome): 1300 nM

Compound: Cc1cc(C)c(-n2cc3sc(NCCN(C)C)nc3n2)c(O)c1 [Example 53, 2-(5-{[2-(dimethylamino)ethyl]amino}-2H-pyrazolo[3,4-d][1,3]thiazol-2-yl)-3,5-dimethylphenol]
- IC50 (NF-κB pathway; [1]): > 30000 nM
- IC50 (NLRP3 inflammasome): 680 nM

Compound: Cc1cc(C)c(-n2cc3sc(NCCN4CCOCC4)nc3n2)c(O)c1 [Example 54, 3,5-dimethyl-2-(5-{[2-(morpholin-4-yl)ethyl]amino}-2H-pyrazolo[3,4-d][1,3]thiazol-2-yl)phenol]
- IC50 (NF-κB pathway; [1]): > 30000 nM
- IC50 (NLRP3 inflammasome): 1100 nM

Compound: Cc1cc(C)c(-n2cc3sc(NCCC(C)(C)O)nc3n2)c(O)c1 [Example 55, 2-{5-[(3-hydroxy-3-methylbutyl)amino]-2H-pyrazolo[3,4-d][1,3]thiazol-2-yl}-3,5-dimethylphenol]
- IC50 (NF-κB pathway; [1]): > 10000 nM
- IC50 (NLRP3 inflammasome): 1400 nM

Compound: Cc1cnc(-n2nc3nc(N[C@@H]4CCCN(C)C4)sc3c2C)c(O)c1 [Example 58, 5-methyl-2-(3-methyl-5-{[(3R)-1-methylpiperidin-3-yl]amino}-2H-pyrazolo[3,4-d][1,3]thiazol-2-yl)pyridin-3-ol]
- IC50 (NF-κB pathway; [1]): > 30000 nM
- IC50 (NLRP3 inflammasome): 2600 nM

Compound: COCCN(C)c1nc2nn(-c3c(C)cc(C)cc3O)cc2s1 [Example 61, 2-{5-[(2-methoxyethyl)(methyl)amino]-2H-pyrazolo[3,4-d][1,3]thiazol-2-yl}-3,5-dimethylphenol]
- IC50 (NF-κB pathway; [1]): > 10000 nM
- IC50 (NLRP3 inflammasome): 2000 nM

Compound: Cc1cnc(-n2cc3sc(N[C@@H]4CCCN(C)C4)nc3n2)c(O)c1 [Example 63, 5-methyl-2-(5-{[(3R)-1-methylpiperidin-3-yl]amino}-2H-pyrazolo[3,4-d][1,3]thiazol-2-yl)pyridin-3-ol]
- IC50 (NF-κB pathway; [1]): > 10000 nM
- IC50 (NLRP3 inflammasome): 3400 nM

Compound: Cc1cc(C)c(-n2cc3sc(NCC(C)(C)O)nc3n2)c(O)c1 [Example 66, 2-{5-[(2-hydroxy-2-methylpropyl)amino]-2H-pyrazolo[3,4-d][1,3]thiazol-2-yl}-3,5-dimethylphenol]
- IC50 (NF-κB pathway; [1]): > 30000 nM
- IC50 (NLRP3 inflammasome): 250 nM

These reach a lower IC50 (NLRP3 inflammasome). Values come first.

- IC50 (NF-κB pathway; [1]): > 30000 nM
- IC50 (NLRP3 inflammasome): 120 nM
Compound: COCCN(c1nc2nn(-c3c(C)cc(C)cc3O)cc2s1)[C@@H]1CCCNC1 [Example 37, 2-(5-{(2-methoxyethyl)[(3R)-piperidin-3-yl]amino}-2H-pyrazolo[3,4-d][1,3]thiazol-2-yl)-3,5-dimethylphenol]

- IC50 (NF-κB pathway; [1]): > 30000 nM
- IC50 (NLRP3 inflammasome): 14 nM
Compound: Cc1cc(C)c(-n2cc3sc(N[C@@H]4CCCN(CCF)C4)nc3n2)c(O)c1 [Example 42, 2-(5-{[(3R)-1-(2-fluoroethyl)piperidin-3-yl]amino}-2H-pyrazolo[3,4-d][1,3]thiazol-2-yl)-3,5-dimethylphenol]

- IC50 (NF-κB pathway; [1]): > 30000 nM
- IC50 (NLRP3 inflammasome): 28 nM
Compound: COc1cc(C)c(-n2cc3sc(N[C@@H]4C[C@@H](F)CN(C)C4)nc3n2)c(O)c1 [Example 43, 2-(5-{[(3R,5R)-5-fluoro-1-methylpiperidin-3-yl]amino}-2H-pyrazolo[3,4-d][1,3]thiazol-2-yl)-5-methoxy-3-methylphenol]

- IC50 (NF-κB pathway; [1]): > 10000 nM
- IC50 (NLRP3 inflammasome): 130 nM
Compound: COc1cc(C)cc(O)c1-n1cc2sc(N[C@@H]3C[C@@H](F)CN(C)C3)nc2n1 [Example 48, 2-(5-{[(3R,5R)-5-fluoro-1-methylpiperidin-3-yl]amino}-2H-pyrazolo[3,4-d][1,3]thiazol-2-yl)-3-methoxy-5-methylphenol]

- IC50 (NF-κB pathway; [1]): > 30000 nM
- IC50 (NLRP3 inflammasome): 12 nM
Compound: Cc1cc(O)c(-n2cc3sc(N[C@@H]4C[C@@H](F)CN(C)C4)nc3n2)c(OC(F)F)c1 [Example 50, 3-(difluoromethoxy)-2-(5-{[(3R,5R)-5-fluoro-1-methylpiperidin-3-yl]amino}-2H-pyrazolo[3,4-d][1,3]thiazol-2-yl)-5-methylphenol]

- IC50 (NF-κB pathway; [1]): > 30000 nM
- IC50 (NLRP3 inflammasome): 2.8 nM
Compound: CCN1C[C@H](F)C[C@@H](Nc2nc3nn(-c4c(O)cc(C)cc4OC(F)F)cc3s2)C1 [Example 51, 3-(difluoromethoxy)-2-(5-{[(3R,5R)-1-ethyl-5-fluoropiperidin-3-yl]amino}-2H-pyrazolo[3,4-d][1,3]thiazol-2-yl)-5-methylphenol]

- IC50 (NF-κB pathway; [1]): > 10000 nM
- IC50 (NLRP3 inflammasome): 200 nM
Compound: COCCN(c1nc2nn(-c3c(C)cc(C)cc3O)cc2s1)[C@@H]1CCCN(C)C1 [Example 52, 2-(5-{(2-methoxyethyl)[(3R)-1-methylpiperidin-3-yl]amino}-2H-pyrazolo[3,4-d][1,3]thiazol-2-yl)-3,5-dimethylphenol]

- IC50 (NF-κB pathway; [1]): > 30000 nM
- IC50 (NLRP3 inflammasome): 230 nM
Compound: CC(=O)NCCCNc1nc2nn(-c3c(C)cc(C)cc3O)cc2s1 [Example 56, N-(3-{[2-(2-hydroxy-4,6-dimethylphenyl)-2H-pyrazolo[3,4-d][1,3]thiazol-5-yl]amino}propyl) acetamide]

- IC50 (NF-κB pathway; [1]): > 10000 nM
- IC50 (NLRP3 inflammasome): 130 nM
Compound: Cc1cc(C)c(-n2cc3sc(NC45CCC(O)(CC4)C5)nc3n2)c(O)c1 [Example 57, 4-{[2-(2-hydroxy-4,6-dimethylphenyl)-2H-pyrazolo[3,4-d][1,3]thiazol-5-yl]amino}bicyclo[2.2.1]heptan-1-ol]

- IC50 (NF-κB pathway; [1]): > 30000 nM
- IC50 (NLRP3 inflammasome): 23 nM
Compound: CCc1cc(O)c(-n2cc3sc(N[C@@H]4C[C@@H](F)CN(C)C4)nc3n2)c(CC)c1 [Example 59, 3,5-diethyl-2-(5-{[(3R,5R)-5-fluoro-1-methylpiperidin-3-yl]amino}-2H-pyrazolo[3,4-d][1,3]thiazol-2-yl)phenol]

- IC50 (NF-κB pathway; [1]): > 30000 nM
- IC50 (NLRP3 inflammasome): 61 nM
Compound: CCc1cc(C)c(-n2cc3sc(N[C@@H]4C[C@@H](F)CN(C)C4)nc3n2)c(O)c1 [Example 60, 5-ethyl-2-(5-{[(3R,5R)-5-fluoro-1-methylpiperidin-3-yl]amino}-2H-pyrazolo[3,4-d][1,3]thiazol-2-yl)-3-methylphenol]

- IC50 (NF-κB pathway; [1]): > 10000 nM
- IC50 (NLRP3 inflammasome): 120 nM
Compound: Cc1cc(C)c(-n2cc3sc(N[C@H]4CNC[C@H](F)C4)nc3n2)c(O)c1 [Example 62, 2-(5-{[(3R,5R)-5-fluoropiperidin-3-yl]amino}-2H-pyrazolo[3,4-d][1,3]thiazol-2-yl)-3,5-dimethylphenol]

- IC50 (NF-κB pathway; [1]): > 10000 nM
- IC50 (NLRP3 inflammasome): 78 nM
Compound: Cc1cc(O)c(-n2cc3sc(NC[C@@H](C)O)nc3n2)c(C2CC2)c1 [Example 64, 3-cyclopropyl-2-(5-{[(2R)-2-hydroxypropyl]amino}-2H-pyrazolo[3,4-d][1,3]thiazol-2-yl)-5-methylphenol]

- IC50 (NF-κB pathway; [1]): > 30000 nM
- IC50 (NLRP3 inflammasome): 8.3 nM
Compound: Cc1cc(O)c(-n2cc3sc(N[C@@H]4C[C@@H](F)CN(C)C4)nc3n2)c(C2CC2)c1 [Example 65, 3-cyclopropyl-2-(5-{[(3R,5R)-5-fluoro-1-methylpiperidin-3-yl]amino}-2H-pyrazolo[3,4-d][1,3]thiazol-2-yl)-5-methylphenol]
